Holding throughout (assay): NCI-60 cell line screen, 48 h
Assay [1] deals with A498.
Assay [2] concerns A549.
Assay [3] concerns HOP-62.
The subject of assay [4] is M14.
The subject of assay [5] is MDA-MB-435.
For assay [6], the system named is MDA-N.
Assay [7] concerns Malme-3M.
Assay [8] deals with NCI-H522.
Assay [9] has as its system NCI/ADR-RES.
Assay [10] deals with PC-3.
Assay [11] relates to SK-MEL-2.
Assay [12] has as its system SK-OV-3.
The test system of assay [13] is SNB-75.
Assay [14] deals with T47D.
The subject of assay [15] is TK-10.
Assay [16] deals with U-251.
For assay [17], the system named is UACC-257.
The subject of assay [18] is UACC-62.
For assay [19], the system named is Hs-578T.
For assay [20], the system named is BT-549.

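Where inhibition never reached the appropriate level, the endpoint shown equals the highest concentration tested. Otherwise, values were interpolated linearly from a five-concentration, 48-hour dose response in 96-well plates. Here, GI50 denotes the concentration required for 50% inhibition of growth.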 Activity calls are given as the source filed them. Rule as the data show it: active = GI50 up to about 1.1 µM and inactive = higher.

Consider `COc1ccc(Nc2c[nH]c(=O)[nH]c2=O)cc1`, for which the GI50 in [1], in assay [2], in [3], in assay [4], in [5] and in assay [6] was > 100 µM (inactive) in each case. Further, the GI50 in assay [7], in assay [8], in assay [9], in assay [10], in [11] and in assay [12] was > 100 µM (inactive) each time. Besides, the GI50 in assay [13], in assay [14], in [15], in assay [16], in assay [17] and in [18] was > 100 µM (inactive) each time.
As for `Cc1ccccc1Nc1nc2ccccc2nc1NS(=O)(=O)c1ccccc1`, the GI50 is > 100 µM (inactive) in [2]; 68.1 µM (inactive) in [3]; > 100 µM (inactive) in [19]; > 100 µM (inactive) in [4]; > 100 µM (inactive) in assay [5]; > 100 µM (inactive) in assay [7]. The GI50 was > 100 µM (inactive) in assay [8]; > 100 µM (inactive) in assay [9]; > 100 µM (inactive) in [10]; > 100 µM (inactive) in [11]; > 100 µM (inactive) in [12]; 56.2 µM (inactive) in [13]. Also, the GI50 in assay [14] is > 100 µM (inactive); in assay [15] it was > 100 µM (inactive); in assay [16] it was 67.9 µM (inactive); in [17] it was > 100 µM (inactive); in assay [18] it was 62.2 µM (inactive).
Take `O=C1C2=Cc3ccccc3CCN2c2ccccc21`: the GI50 in [1] was 16.3 µM (inactive); in [2], 49.2 µM (inactive); in [20] it was 13.8 µM (inactive); in [3], > 63.8 µM (inactive); in assay [19], 41 µM (inactive); in assay [4], 16.1 µM (inactive). The GI50 was 28.7 µM (inactive) in assay [5]; > 10 µM (inactive) in assay [6]; 26.3 µM (inactive) in assay [7]; 40.2 µM (inactive) in assay [8]; 30.1 µM (inactive) in assay [9]; 35.2 µM (inactive) in assay [10]. Further, the GI50 in assay [11] is 21 µM (inactive); in assay [13] it was > 100 µM (inactive); in assay [15], > 100 µM (inactive); in assay [16] it was > 31.6 µM (inactive); in assay [17] it was 27.2 µM (inactive); in [18], > 10 µM (inactive).
Consider `Cc1nc(N)sc1/N=N/c1cc(Cl)c([N+](=O)[O-])cc1Cl`, for which the GI50 in assay [2] was 12.8 µM (inactive); in assay [3] it was 33.7 µM (inactive); in assay [19] it was 21.9 µM (inactive); in [4], 50.4 µM (inactive); in [5] it was 19.4 µM (inactive); in [7], 12 µM (inactive). Also, the GI50 in assay [8] is 15.5 µM (inactive); in [9], 20.6 µM (inactive); in assay [10], 18.7 µM (inactive); in assay [11], 22.8 µM (inactive); in assay [12] it was 74.6 µM (inactive); in [13], < 0.01 µM (active). Besides, the GI50 in assay [14] is 35.9 µM (inactive); in assay [15] it was 21.4 µM (inactive); in assay [16], 16.3 µM (inactive); in assay [17] it was 16.7 µM (inactive); in assay [18] it was 16.4 µM (inactive).
Turning to `COc1ccc2cc(NC(=O)N/N=C\c3ccc(Cl)cc3)ccc2c1`, the GI50 in assay [2] was > 100 µM (inactive); in assay [20], > 100 µM (inactive); in assay [3] it was 27.5 µM (inactive); in [19] it was 24 µM (inactive); in assay [4], > 100 µM (inactive); in assay [5] it was 69.8 µM (inactive). Also, the GI50 in assay [6] was > 100 µM (inactive); in [7], 34 µM (inactive); in assay [8], > 100 µM (inactive); in assay [9], 86.3 µM (inactive); in assay [10] it was > 100 µM (inactive); in assay [11], > 100 µM (inactive). The GI50 in [12] is > 100 µM (inactive); in assay [13], 72.3 µM (inactive); in assay [15], > 100 µM (inactive); in [16] it was 41.2 µM (inactive); in assay [17] it was > 100 µM (inactive); in [18], 40.3 µM (inactive).
As to `N#Cc1c(-c2ccccc2)c(C#N)c(=O)n(NS(=O)(=O)c2ccccc2)c1O`, the GI50 in assay [1], in [2], in [20], in assay [3], in assay [19] and in [4] was > 100 µM (inactive) throughout. Also, the GI50 in assay [5], in assay [6], in assay [7], in assay [8], in assay [9] and in assay [10] was > 100 µM (inactive) each time. Further, the GI50 in [11], in assay [12], in assay [13], in assay [15], in assay [16] and in [17] was > 100 µM (inactive) each time. Besides, the GI50 in [18] was > 100 µM (inactive).
Turning to `CC1CN=C(Nc2ccc(S(N)(=O)=O)cc2)S1` (stereo not drawn), the GI50 in [1] was > 100 µM (inactive); in assay [2] it was > 100 µM (inactive); in assay [3], > 100 µM (inactive); in assay [19], > 100 µM (inactive); in [4], > 100 µM (inactive); in [6], > 10 µM (inactive). Moreover, the GI50 was > 100 µM (inactive) in assay [7]; > 100 µM (inactive) in [9]; > 10 µM (inactive) in assay [10]; > 100 µM (inactive) in assay [11]; > 100 µM (inactive) in [12]; > 100 µM (inactive) in assay [13]. Also, the GI50 in assay [14] was 60.1 µM (inactive); in assay [15], > 100 µM (inactive); in assay [16], > 100 µM (inactive); in [17], > 100 µM (inactive).
Take `Cc1ccc(N(C(=O)Nc2ccc(F)c(Cl)c2)C2=NCC(C)S2)cc1` (stereo not drawn): the GI50 was 34.3 µM (inactive) in assay [1]; 57.3 µM (inactive) in assay [2]; > 100 µM (inactive) in assay [3]; > 100 µM (inactive) in assay [19]; 46.7 µM (inactive) in assay [6]; 77.3 µM (inactive) in [7]. The GI50 in [9] was 22.6 µM (inactive); in assay [10], 46.7 µM (inactive); in assay [11], 61.5 µM (inactive); in assay [12] it was > 100 µM (inactive); in assay [13], 17.9 µM (inactive); in assay [14], 33 µM (inactive). In addition, the GI50 in assay [15] was 29.7 µM (inactive); in assay [16], 50.6 µM (inactive); in assay [17] it was 53.2 µM (inactive).
On to `Cc1nc2c(o1)C(=O)c1ccccc1/C2=N/c1ccccn1`, for which the GI50 was 16.7 µM (inactive) in assay [1]; 31.8 µM (inactive) in assay [2]; 18.3 µM (inactive) in assay [20]; 18.4 µM (inactive) in assay [3]; 14.8 µM (inactive) in assay [19]; 18.6 µM (inactive) in [4]. Moreover, the GI50 in assay [5] was 17.9 µM (inactive); in assay [6], 17.3 µM (inactive); in assay [7], 12.5 µM (inactive); in assay [8], 19 µM (inactive); in assay [9], 15.8 µM (inactive); in [10], 30.8 µM (inactive). Further, the GI50 was 18.8 µM (inactive) in assay [11]; > 100 µM (inactive) in [12]; 4.57 µM (inactive) in assay [13]; > 100 µM (inactive) in assay [15]; 16.8 µM (inactive) in [16]; 14 µM (inactive) in [17]. In addition, in assay [18], the GI50 is 20 µM (inactive).
On to `CC(C)(CN1CCCCC1)C(/C=C/c1ccccc1)=N\NC(=O)N/N=C(/C=C/c1ccccc1)C(C)(C)CN1CCCCC1`, for which the GI50 is 1.5 µM (inactive) in assay [1]; 2.43 µM (inactive) in [2]; 1.77 µM (inactive) in assay [20]; 1.85 µM (inactive) in assay [3]; 2.67 µM (inactive) in assay [19]; 1.71 µM (inactive) in assay [4]. In addition, the GI50 was 1.51 µM (inactive) in [5]; 1.63 µM (inactive) in [6]; 2.04 µM (inactive) in assay [7]; 1.83 µM (inactive) in assay [8]; 1.74 µM (inactive) in assay [9]; 1.97 µM (inactive) in assay [10]. In addition, the GI50 in assay [11] is 2.01 µM (inactive); in [12], 3.32 µM (inactive); in assay [13], 1.38 µM (inactive); in assay [15], 1.75 µM (inactive); in [16], 1.63 µM (inactive); in [17], 1.71 µM (inactive). The GI50 in assay [18] was 1.54 µM (inactive).
Take `O/N=C1\CCc2nonc2\C1=N/Nc1ccccc1`: the GI50 in [2], in assay [3], in assay [19], in assay [4], in [5] and in assay [6] was > 100 µM (inactive) each time. Further, the GI50 in assay [7], in assay [9], in assay [10], in assay [11], in assay [12] and in assay [13] was > 100 µM (inactive) each time. The GI50 was 57.3 µM (inactive) in assay [14]; > 100 µM (inactive) in assay [15]; > 100 µM (inactive) in assay [16]; > 100 µM (inactive) in assay [17]; > 100 µM (inactive) in assay [18].

(Values after ChEMBL document CHEMBL1201862, “PubChem BioAssay data set” (2004).)
